The values that follow come from paper PMC5756575, “In Vitro Biotransformation, Safety, and Chemopreventive Action of Novel 8-Methoxy-Purine-2,6-Dione Derivatives” (Applied Biochemistry and Biotechnology, 2017).

A short description of experiment [1]: DPPH radical scavenging assay. Type of experiment: biochemical. As to conditions: DPPH 250 μM, compound at 250 μM, 30 min, 517 nm. The procedure: The capacity of selected 8-methoxy-purine-2,6-dione derivatives to scavenge stable free radical DPPH was assessed. A blank and a triplicate of 10 different concentrations of each compound or of each positive control (gallic and ascorbic acids) were evaluated in the experiment. Aforesaid concentrations of compounds were obtained by dilution from a 1000 μM stock solution in methanol. One hundred microliters of DPPH stock solution were added to each well; later, 100 μL of the corresponding compound dilution were added. Consequently, the final concentration of DPPH radical was 250 μM, whereas the final concentrations of the tested compounds or positive controls were 500, 375, 250, 125, 62.5, 50, 37.5, 25, 12.5, and 6.25 μM. Afterwards, the 96-plate was wrapped with aluminum and stored in the dark 30 min prior to the spectrophotometric measurement at a 517-nm wavelength. The obtained absorbances were used to calculate the percentage of radical scavenged by the action of a compound or of a positive control at each concentration using a formula 100 × (A 0 − A m)/A 0. In this equation A m is the average absorbance of the three triplicates measured at the corresponding concentration and A 0 is the average absorbance of DPPH radical in the absence of the tested substance. Knowing inhibition data at the different concentrations, IC50 was calculated when applicable.
A general note: Loss of DPPH colour is used to gauge radical scavenging.

Experiment [2] has as its system mice. Set-up: method as in PMID 25443727, PMID 25560569. As to conditions: writhing syndrome test in mice; cited from earlier work. A general note: Writhing tests count abdominal constrictions after an irritant is injected.

Take `COc1nc2c(c(=O)n(C)c(=O)n2C)n1CCCC(=O)NCc1ccccc1` [Compound 3, N-benzyl-4-(8-methoxy-1,3-dimethyl-2,6-dioxo-purin-7-yl)butanamide]: the “maximum radical scavenging percentage observed” value in experiment [1] worked out at 6.56%. Regarding `COc1nc2c(c(=O)n(C)c(=O)n2C)n1CCCC(=O)N1CCN(c2ccccc2)CC1` [Compound 4, 8-methoxy-1,3-dimethyl-7-[4-oxo-4-(4-phenylpiperazin-1-yl)butyl]purine-2,6-dione], the “fold higher activity than acetylsalicylic acid” value in experiment [2] was 23 fold.
